From patent publication US10905665B2, “Chemical modulators of signaling pathways and therapeutic use” (Duke University, priority 2015, dated 2021)

Key:
[1] = tested on: Wnt/β-catenin transcription; experiment: Wnt-3A-stimulated TOPFlash reporter assay in HEK293 cells; type: cell-based; conditions: Homo sapiens, HEK293, 8 h, Wnt-3A conditioned medium, 8 hour treatment; read-out: Inhibition Wnt/β-catenin transcription TopFlash IC50
[2] = Pharmacokinetic studies, niclosamide in mouse plasma; type: in vivo, CD1 mice; conditions: mice
Experimental: For niclosamide dosed IV, niclosamide was dissolved in a solvent of 67% polyethylene glycol 400 and 33% N,N-dimethylacetamide at a concentration of 3.27 mg/mL and tail vein injected at a dose of 2.6 mg/kg of body weight. Blood samples were obtained at predose and at 0.08, 0.17, 0.33, 0.67, 1.5, 4, 8, 12 hours after drug administration. For oral dosing of compound 74, compound 74 was dissolved in a solvent of 90% polyethylene glycol 300 and 10% 1-methyl-2-pyrrolidinone at a concentration of 20 mg/mL and gavaged at a dose of 200 mg/kg of body weight. Blood samples were obtained at predose and at 0.25, 0.5, 1, 2, 4, 8 hours after drug administration. For oral dosing of compound 61, compound 61 was dissolved in corn oil at a concentration of 20 mg/mL and dosed at 200 mg/kg of body weight. Blood samples were obtained at predose and at 0.25, 0.5, 0.75, 1, 1.5, 4, 8, 12, 24, 48, and 72 hours after drug administration. All the solvent reagents were purchased from Sigma-Aldrich (St. Louis, Mo., USA). CD1 mice were used in the pharmacokinetic studies. Quantification of niclosamide in mouse plasma was done by LC/MS-MS using methods similar to those previously published (Osada, T.; Chen, M. Y.; Yang, X. Y.; Spasojevic, I.; Vandeusen, J. B.; Hsu, D.; Clary, B. M.; Clay, T. M.; Chen, W.; Morse, M. A.; Lyerly, H. K. Cancer Research 2011, 71, 4172.).

[3] = molecular target: T1, Frizzled1-GFP (Homo sapiens, UniProt Q9UP38); experiment: Frizzled internalization assay (Fzd1-GFP); type: cell-based; set-up: key: Punctate similar to control=0; trace amount of punctate greater than control=1; moderate=3; strong=5; conditions: 6 hours, 0-5 point scale
T1 construct: expressed in transfected cells
T1 sequence (Q9UP38 70-647): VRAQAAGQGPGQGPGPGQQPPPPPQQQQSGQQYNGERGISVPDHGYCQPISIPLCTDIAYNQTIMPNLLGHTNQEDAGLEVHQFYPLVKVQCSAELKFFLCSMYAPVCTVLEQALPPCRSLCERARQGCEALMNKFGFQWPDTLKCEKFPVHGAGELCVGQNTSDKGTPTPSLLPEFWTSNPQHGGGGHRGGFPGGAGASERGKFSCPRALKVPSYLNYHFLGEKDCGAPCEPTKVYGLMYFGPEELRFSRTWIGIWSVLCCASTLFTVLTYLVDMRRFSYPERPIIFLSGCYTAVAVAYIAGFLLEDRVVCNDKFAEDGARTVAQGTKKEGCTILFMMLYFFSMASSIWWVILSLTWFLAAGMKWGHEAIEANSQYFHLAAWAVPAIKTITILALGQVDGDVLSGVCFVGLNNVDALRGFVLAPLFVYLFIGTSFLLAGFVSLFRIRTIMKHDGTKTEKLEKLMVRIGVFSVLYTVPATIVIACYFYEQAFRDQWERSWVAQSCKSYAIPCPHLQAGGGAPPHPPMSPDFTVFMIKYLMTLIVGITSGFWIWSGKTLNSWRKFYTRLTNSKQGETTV
Experimental: The Fzd1-GFP assay was performed following a procedure similar to previously published work (Chen, M. Y.; Wang, J. B.; Lu, J. Y.; Bond, M. C.; Ren, X. R.; Lyerly, H. K.; Barak, L. S.; Chen, W. Biochemistry 2009, 48, 10267). Cells stably expressing Frizzled1-GFP plated in confocal dishes were treated, after 24 hours, with 12.5 μM of test compound or DMSO for 6 hours at 37° C. followed by fixation with 4% paraformaldehyde. The cells were then examined by microscopy using a LSM 510-Meta confocal microscope (Carl Zeiss, Thornwood, N.Y., USA) equipped with 40× and 100× apo chromat objectives. YFP was excited using a 488-nm argon laser line. Images were processed using the LSM software Image Browser (CarlZeiss, Thornwood, N.Y., USA). Plates were read twice in blinded fashion using a 0-5 point scale. ^aPunctate similar to control=0, trace amount of punctate greater than control=1, moderate=3, strong=5.

[4] = tested on: β-catenin; experiment: Western blot of cytosolic β-catenin in HCT-116 cells; type: cell-based; conditions: Homo sapiens, HCT-116, 18 h, 2.0 μM compound, read-out: Remaining cytosolic β-catenin
Experimental: Western blots were performed following a procedure similar to previously published work (Osada, T.; Chen, M. Y.; Yang, X. Y.; Spasojevic, I.; Vandeusen, J. B.; Hsu, D.; Clary, B. M.; Clay, T. M.; Chen, W.; Morse, M. A.; Lyerly, H. K. Cancer Research 2011, 71, 4172). HCT-116 cells were grown to about 80% confluency in poly-D-lysine coated six-well plates 48 hours before treatment and followed by 2.0 μM compounds or DMSO incubation for 18 hours in growth medium. After treatment, the cytosolic fraction was isolated as described (Osada, T.; Chen, M. Y.; Yang, X. Y.; Spasojevic, I.; Vandeusen, J. B.; Hsu, D.; Clary, B. M.; Clay, T. M.; Chen, W.; Morse, M. A.; Lyerly, H. K. Cancer Research 2011, 71, 4172). Immunoblots using antibodies to […] (E-5, Santa Cruz Biotechnology catalog number sc-7963) was used to detect β-catenin protein levels in the cytosol, and immunoblots using antibodies to β-actin (C-4, Santa Cruz Biotechnology, catalog number SC-47778) was used for loading controls.
Inhibition of Wnt signaling was determined by analyzing the reduction of cytosolic β-catenin by Western blot (FIG. 1, 2).

[5] = tested on: colon cancer cell line HCT116; experiment: Cell proliferation assay (MTS); type: cell-based; conditions: Homo sapiens, HCT-116; HCT116, 72 hours, 0.04 to 10 μM; read-out: Anti-proliferation IC50 (μM), MTS assay
Experimental: The colon cancer cell line HCT116 was used in the cell proliferation assay. The cells were plated in 100 μl of growing medium/well in 96-well plates at 5,000 cells per well and treated with compounds from 0.04 to 10 μM for 72 hours, after which point the cells were analyzed by colorimetric MTS assay (Promega, Madison, Wis., USA). Data were fit using GraphPad Prism (mean±SEM, n 3).

[6] = tested on: High Fat Diet (HFD)-Induced Hepatic Steatosis; experiment: Reduction of high fat diet (HFD)-induced hepatic steatosis; type: in vivo, C57BL/6J mice; conditions: 200 mg/kg oral gavage, three months
Experimental: Five week old male C57BL/6J mice were fed with chow or high fat diet for two months, followed by same diet and oral gavage of vehicle (corn oil) or compound 61 at 200 mg/kg for three months (daily for 6 days a week from Monday to Saturday). Liver tissue samples were collected after the three month treatment. Pictures shown in FIG. 9 are representative liver sections stained with H&E. A. Chow mice with vehicle; B. Chow mice with compound 61; C. HFD mice with vehicle; D. HFD mice with compound 61. […] The white fat deposits look similar in both panel A and B. However, when mice were fed a high fat diet (panel C), a large amount of white fatty deposits can be seen along with a large amount of dysplastic liver tissue.

[7] = niclosamide dosed orally as a solution at 200 mg/kg, reported (Osada 2011); cited from earlier work

IC50 [1] | Pharmacokinetic properties after oral administration, in words [2] | Fzd1-GFP internalization @12.5 μM [3] | IC50 [5] | Effect on the liver (H&E sections), chow diet ([6]; normal chow diet) | SMILES | activity at 2 µM [4] | Plasma exposure of niclosamide compared to 200 mg/kg niclosamide dosed orally, in words ([2]; compound 61 in corn oil, 200 mg/kg oral) | Liver fat deposits and tissue architecture (H&E sections), high fat diet ([6]; high fat diet) | Time plasma levels of niclosamide were above the TOPFlash IC50 [7]
320 ± 30 nM | poor pharmacokinetic properties | – | – | – | O=c1oc2ccc(Cl)cc2c(=O)n1-c1ccc(C(F)(F)F)cc1 [Compound 74, 6-chloro-3-(4-(trifluoromethyl)phenyl)-2H-benzo[e][1,3]oxazine-2,4(3H)-dione] | – | – | – | –
230 ± 60 nM | – | 5 | 0.61 ± 0.11 µM | minimal to no effect | CCCCCCCC(=O)Oc1ccc(Cl)cc1C(=O)Nc1ccc([N+](=O)[O-])cc1Cl [Compound 61, 4-Chloro-2-((2-chloro-4-nitrophenyl)carbamoyl)phenyl octanoate] | 8% | significantly increased plasma exposure of niclosamide | limited white fatty deposits without the dysplastic tissue architecture | –
340 ± 80 nM | – | 5 | 0.45 ± 0.05 µM | – | O=C(Nc1ccc([N+](=O)[O-])cc1Cl)c1cc(Cl)ccc1O [A, 5-chloro-N-(2-chloro-4-nitrophenyl)-2-hydroxybenzamide, reference compound] | 8% | – | – | less than 1 hour
560 ± 210 nM | poor pharmacokinetic properties | 5 | 0.54 ± 0.08 µM | – | O=C(Nc1ccc(C(F)(F)F)cc1Cl)c1cc(Cl)ccc1O [Compound 7, 5-chloro-N-(2-chloro-4-(trifluoromethyl)phenyl)-2-hydroxybenzamide] | 6% | – | – | –
